#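 Where inhibition never reached the appropriate level, the endpoint shown equals the highest concentration tested. Otherwise, values were interpolated linearly from a five-concentration, 48-hour dose response in 96-well plates. At the GI50, growth is halved.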 The source made the active and inactive calls. Rule as the data show it: active = GI50 up to about 1.1 µM and inactive = higher.
# How the values were obtained:
# Assay in all cases: growth of human tumour cells (NCI), 48 h
# 786-0 = tested on: 786-0
# ACHN = tested on: ACHN
# CCRF-CEM = tested on: CCRF-CEM
# COLO 205 = tested on: COLO 205
# HCC 2998 = tested on: HCC 2998
# HCT-116 = tested on: HCT-116
# HOP-92 = tested on: HOP-92
# HT-29 = tested on: HT-29
# IGROV-1 = tested on: IGROV-1
# M14 = tested on: M14
# MCF7 = tested on: MCF7
# MDA-MB-435 = tested on: MDA-MB-435
# NCI-H522 = tested on: NCI-H522
# OVCAR-3 = tested on: OVCAR-3
# OVCAR-4 = tested on: OVCAR-4
# OVCAR-5 = tested on: OVCAR-5
# RPMI-8226 = tested on: RPMI-8226
# SK-MEL-2 = tested on: SK-MEL-2
# SNB-19 = tested on: SNB-19
# UACC-257 = tested on: UACC-257
Compound,GI50 (786-0),GI50 (ACHN),GI50 (CCRF-CEM),GI50 (COLO 205),GI50 (HCC 2998),GI50 (HCT-116),GI50 (HOP-92),GI50 (HT-29),GI50 (IGROV-1),GI50 (M14),GI50 (MCF7),GI50 (MDA-MB-435),GI50 (NCI-H522),GI50 (OVCAR-3),GI50 (OVCAR-4),GI50 (OVCAR-5),GI50 (RPMI-8226),GI50 (SK-MEL-2),GI50 (SNB-19),GI50 (UACC-257)
CC(=O)Nc1ccc(C(=O)NN2C(=O)C(Cl)C2c2ccc(Cl)cc2)cc1 (stereo not given),18.7 µM (inactive),> 57.5 µM (inactive),> 100 µM (inactive),> 100 µM (inactive),> 100 µM (inactive),> 100 µM (inactive),26.1 µM (inactive),> 100 µM (inactive),37.3 µM (inactive),> 100 µM (inactive),> 100 µM (inactive),> 100 µM (inactive),38.8 µM (inactive),18.8 µM (inactive),> 100 µM (inactive),> 74.3 µM (inactive),> 100 µM (inactive),41.6 µM (inactive),24.2 µM (inactive),> 100 µM (inactive)
COc1ccc(C(C)c2cc3c(cc2OC)OCO3)cc1 (stereo not given),0.098 µM (active),3.01 µM (inactive),0.131 µM (active),0.135 µM (active),0.193 µM (active),0.111 µM (active),1.45 µM (inactive),0.0798 µM (active),0.104 µM (active),0.0738 µM (active),0.0461 µM (active),0.0175 µM (active),0.0455 µM (active),0.107 µM (active),49.4 µM (inactive),3.48 µM (inactive),0.122 µM (active),0.0767 µM (active),2.61 µM (inactive),7.38 µM (inactive)
CC(=O)c1c(O)c(C)c(O)c(Cc2c(O)c3c(c(C(=O)/C=C/c4ccccc4)c2O)OC(C)(C)C=C3)c1O [ROTTLERIN],2.85 µM (inactive),3.51 µM (inactive),2.99 µM (inactive),1.68 µM (inactive),2.23 µM (inactive),1.82 µM (inactive),1.62 µM (inactive),3.24 µM (inactive),3.1 µM (inactive),3.23 µM (inactive),3.13 µM (inactive),2.74 µM (inactive),1.95 µM (inactive),2.7 µM (inactive),2.79 µM (inactive),3.56 µM (inactive),1.79 µM (inactive),1.34 µM (inactive),2.34 µM (inactive),2.21 µM (inactive)
COc1ccc(C2=C3SC=c4ccccc4=C3ON=C2c2ccccc2)cc1,> 100 µM (inactive),> 100 µM (inactive),84.3 µM (inactive),> 100 µM (inactive),> 100 µM (inactive),57.4 µM (inactive),68.1 µM (inactive),> 100 µM (inactive),> 100 µM (inactive),> 100 µM (inactive),> 100 µM (inactive),> 100 µM (inactive),53.8 µM (inactive),94.8 µM (inactive),> 100 µM (inactive),> 100 µM (inactive),69.2 µM (inactive),> 100 µM (inactive),> 100 µM (inactive),> 100 µM (inactive)
Cc1ccc(C2(c3ccc(F)cc3)OC(=O)c3ccccc32)c(O)c1 (stereo not given),15.4 µM (inactive),14.8 µM (inactive),18.7 µM (inactive),21.1 µM (inactive),22.4 µM (inactive),12.9 µM (inactive),16.6 µM (inactive),17.7 µM (inactive),14.4 µM (inactive),15 µM (inactive),17 µM (inactive),12.4 µM (inactive),14.5 µM (inactive),3.56 µM (inactive),17 µM (inactive),14.4 µM (inactive),16.4 µM (inactive),14.7 µM (inactive),16.6 µM (inactive),15.6 µM (inactive)
S=C(S)NCCN1CCNCC1,22.3 µM (inactive),36.7 µM (inactive),21.1 µM (inactive),18 µM (inactive),22.7 µM (inactive),27.9 µM (inactive),75.9 µM (inactive),59.7 µM (inactive),49.5 µM (inactive),31.2 µM (inactive),40 µM (inactive),62.1 µM (inactive),14.7 µM (inactive),22.4 µM (inactive),> 100 µM (inactive),> 100 µM (inactive),18.6 µM (inactive),67.1 µM (inactive),> 100 µM (inactive),20.7 µM (inactive)
CCOC(=O)c1ccc(-c2cccs2)[nH]1,> 100 µM (inactive),78.9 µM (inactive),> 81.3 µM (inactive),60.7 µM (inactive),> 100 µM (inactive),68.5 µM (inactive),12.1 µM (inactive),54 µM (inactive),83.2 µM (inactive),63.5 µM (inactive),53.7 µM (inactive),44.3 µM (inactive),32.7 µM (inactive),59.8 µM (inactive),31.6 µM (inactive),> 57 µM (inactive),> 70.8 µM (inactive),> 100 µM (inactive),98.2 µM (inactive),91.6 µM (inactive)
C=C1C(=O)O[C@@H]2C[C@@H]3[C@]4(CC[C@]5(C)[C@@H]([C@H](C)CC/C=C(\C)C=O)CC[C@@]35C)C[C@]4(CCC(=O)OC)[C@H]12,1.71 µM (inactive),2.06 µM (inactive),0.222 µM (active),2.39 µM (inactive),2.14 µM (inactive),0.771 µM (active),1.94 µM (inactive),4.39 µM (inactive),2.13 µM (inactive),1.36 µM (inactive),1.46 µM (inactive),1.51 µM (inactive),3.09 µM (inactive),1.62 µM (inactive),1.7 µM (inactive),2.16 µM (inactive),0.295 µM (active),1.77 µM (inactive),1.97 µM (inactive),0.454 µM (active)
CC1=C2O[C@]3(O)C=C2C(=C(O)C1=O)[C@@H]1O[C@H](CC[C@H](C)/C=C(\C)C[C@@H](C)C[C@@H]3C)[C@H](C)[C@H](O)[C@H]1C [KENDOMYCIN],0.149 µM (active),0.132 µM (active),0.0473 µM (active),0.125 µM (active),0.167 µM (active),0.176 µM (active),0.13 µM (active),0.181 µM (active),0.163 µM (active),0.161 µM (active),0.179 µM (active),0.145 µM (active),0.218 µM (active),0.15 µM (active),0.194 µM (active),1.31 µM (inactive),0.118 µM (active),0.247 µM (active),0.977 µM (active),0.239 µM (active)
O=C(/C=C/c1c(O)nc2ccccc2c1O)CC(=O)C(=O)Nc1cccc(O)c1,> 100 µM (inactive),> 100 µM (inactive),21.1 µM (inactive),> 100 µM (inactive),> 100 µM (inactive),> 100 µM (inactive),> 100 µM (inactive),> 100 µM (inactive),> 100 µM (inactive),> 100 µM (inactive),> 100 µM (inactive),> 100 µM (inactive),> 100 µM (inactive),> 100 µM (inactive),> 100 µM (inactive),> 100 µM (inactive),> 100 µM (inactive),> 100 µM (inactive),> 100 µM (inactive),> 100 µM (inactive)
COC(=O)c1ccc2c(c1)C(NC(C)=O)CCc1cc(OC)c(OC)c(OC)c1-2 (stereo not given),0.015 µM (active),0.018 µM (active),0.0133 µM (active),0.0119 µM (active),0.0327 µM (active),< 0.0114 µM (active),0.0391 µM (active),0.0125 µM (active),0.0163 µM (active),0.0153 µM (active),0.0612 µM (active),< 0.01 µM (active),0.018 µM (active),< 0.0116 µM (active),11.9 µM (inactive),0.112 µM (active),0.0151 µM (active),0.0208 µM (active),0.0183 µM (active),0.53 µM (active)
